In brackets after ≈: the same amount, converted by molar mass. Like-named read-outs stand apart in the source and are kept apart here.
Legend:
[1] = Aqueous solubility (laser nephelometry); assay type: physicochemical; settings: for solubility at 30 min: aqueous assay buffer with 1% DMSO, kinetic from dmso stock, 30 minute incubation at 25° C.
Method: Test compounds prepared in DMSO were screened in duplicate over a range of concentrations (1.6-100 ug/mL) in different aqueous media (for example a pH6.5 buffers which are relevant to the stomach and upper regions of the small intestine and therefore important when predicting the amount of drug likely to be in solution following oral administration). Test compounds were serially diluted in 100% DMSO ranging from 10-0.16 mg/mL. These titrated DMSO stocks were then further diluted 1:100 with assay buffer and added to test plates (UV Star Griener 384 well plates), maintaining the DMSO concentration at 1%.

[2] = tested on: subgenomic genotype 1a (H77) replicon cell line; assay: HCV replicon assay, genotype 1a (Renilla luciferase); assay type: cell-based; settings: Hepatitis C virus; genotype 1a replicon; read-out: G1a (EC50 μM)
Method: (§1) A genotype 1b (Con 1) subgenomic replicon cell line based on Blight et al., Science 2000 290: 1972-1974, modified to express a Renilla luciferase reporter gene was used to assess antiviral activity of test compounds. Cell cultures were maintained in a sub-confluent state in DMEM with glutamine, 10% heat-inactivated foetal bovine serum (FBS) and G418 (Geneticin®).
(§2) For assay, cells were seeded at a density of 7000 cells/well into 96 well tissue culture trays in culture media lacking G418. Compounds were tested in a three fold dilution series, for example starting from 50 uM. After 72 hours incubation at 37° C. and 5% CO2, Renilla luciferase activity was quantified via the Promega Renilla Luciferase or Renilla-Glo™ Luciferase Assay Systems (Promega corporation. The same method was employed for replicon assays using subgenomic genotype 1a (H77) and 2a (JFH-1) replicon cell lines with a seeding cell density of 5000 cells/well for the 2a cell lines.
(§3) The compound concentration that reduced luciferase activity by 50% (EC50) was calculated using non-linear regression.

[3] = tested on: subgenomic genotype 2a (JFH-1) replicon cell line; assay: HCV replicon assay, genotype 2a (Renilla luciferase); assay type: cell-based; settings: Hepatitis C virus; genotype 2a replicon; read-out: G2a (EC50 μM)
Method: as §1, §2, §3

1b (BK) NS5BΔ21 = molecular target: T1, 1b (BK) NS5BΔ21 (Hepatitis C virus genotype 1b, UniProt P26663); assay: HCV Polymerase Inhibition Assay; assay type: biochemical; settings: NS5B G1b (IC50 μM), genotype 1b polymerase
T1 construct: 100 nM, 1b (BK) NS5BΔ21
T1 sequence (P26663 2420-2989, stated change not applied): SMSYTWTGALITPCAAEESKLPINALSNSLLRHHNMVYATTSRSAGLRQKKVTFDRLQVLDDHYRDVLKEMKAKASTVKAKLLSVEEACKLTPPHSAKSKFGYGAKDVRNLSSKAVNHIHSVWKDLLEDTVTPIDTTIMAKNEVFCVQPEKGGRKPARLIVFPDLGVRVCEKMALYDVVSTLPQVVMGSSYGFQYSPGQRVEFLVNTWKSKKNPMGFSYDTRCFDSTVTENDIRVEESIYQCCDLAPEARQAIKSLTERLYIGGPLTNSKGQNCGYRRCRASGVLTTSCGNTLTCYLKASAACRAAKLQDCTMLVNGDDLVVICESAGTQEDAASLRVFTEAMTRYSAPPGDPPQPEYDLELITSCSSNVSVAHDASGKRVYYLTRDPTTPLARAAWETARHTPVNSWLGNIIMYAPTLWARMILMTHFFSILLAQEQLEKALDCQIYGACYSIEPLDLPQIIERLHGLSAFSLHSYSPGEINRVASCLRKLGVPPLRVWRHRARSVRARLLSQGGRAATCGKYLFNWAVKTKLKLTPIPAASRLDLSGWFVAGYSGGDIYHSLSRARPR
Method: HCV polymerase reactions were carried out using a modified method of Howe et al., Antimicrobial Agents and Chemotherapy 2004 48(12): 4813-4821. Reactions contained a final concentration of, 0.5% DMSO, 100 nM, 1b (BK) NS5BΔ21, 20 mM Tris-HCl pH 7.5, 5 mM MgCl2, 5 mM MnCl2, 3 mM DTT, 0.05% BSA, 0.2 U/μL RNasin, 10 μg/mL Poly(rC) template, GTP (at Km) and 0.05 μCi/μL ^33P-GTP in a total reaction volume of 50 μL. Compounds were tested in a three fold dilution series, for example starting from 50 μM. Reactions were initiated with the addition of GTP and terminated after 90 min with 50 μL ice cold 0.2 M EDTA. Terminated reactions were transferred to DEAE 96-well filter plates, unincorporated nucleotides washed from the filters and 50 μL scintillation fluid added prior to reading on a scintillation counter. The compound concentration that reduced ^33P-GTP incorporation by 50% (IC50) was calculated using non-linear regression.

[4] = tested on: genotype 1b (Con 1) subgenomic replicon cell line; assay: HCV replicon assay, genotype 1b (Renilla luciferase); assay type: cell-based; settings: Hepatitis C virus; genotype 1b replicon; read-out: G1b (EC50 μM)
Method: as §1, §2, §3

[5] = Cytotoxicity analysis (MTT); assay type: cell-based; settings: genotype 1b replicon cells, three days, read-out: G1b (CC50 μM)
Method: Cytotoxicity of compounds against genotype 1b replicon cells was determined via metabolism of the vital dye 3-(4,5-dimethylthiaxol-2-yl)-2,5-diphenyltetrazolium bromide (MTT, for example see Watanabe et al., Journal of Virological Methods 1994 48:257-265). Plates were prepared as described for the HCV Replicon assay and cytotoxicity of the test article was evaluated after three days. MTT was added to assay plates followed by three hour incubation at 37° C. Wells were aspirated to dryness and the formazan dye dissolved by the addition of isopropanol. Absorbance values were read at 540/690 nm). The compound concentration that reduced cell viability by 50% (CC50) was calculated using non-linear regression.

In the case of `CCN(c1cc2nn(-c3ccc(C)nc3)c(C(=O)NC)c2cc1C1CC1)S(C)(=O)=O` [Compound A, 5-Cyclopropyl-6-[ethyl(methylsulfonyl)amino]-N-methyl-2-(6-methylpyridin-3-yl)-2H-indazole-3-carboxamide, reference compound], the solubility at 30 min ([1]; aqueous buffer, pH 6.5, 1% DMSO, read-out: Solubility pH 6.5) is reported as 6.3 to 12.5 µg/mL (≈ 14.7 to 29.2 µM), the solubility at 30 min ([1]; simulated gastric fluid, pH 2, 1% DMSO, read-out: Solubility pH 2) is reported as < 1.6 µg/mL and the solubility in words ([1]; at both pH2 and pH 6.5) is reported as “very poorly soluble”. For the same compound, the EC50 [2] was 3.17 µM, the EC50 [3] was 3.59 µM and the IC50 (1b (BK) NS5BΔ21) was 3.36 µM. For the same compound, the EC50 [4] was 0.774 µM and the CC50 at 3 days [5] was > 50 µM.

— patent US8785478B2, “Viral polymerase inhibitors” (Biota Scientific Management Pty Ltd, priority 2012, dated 2014)
